Reference: patent publication US5061720A, “Substituted-4-thiazolidinone derivatives” (A. H. Robins Company, Inc., priority 1989, dated 1991)

Key:
5-lipoxygenase = biological target: T1, 5-lipoxygenase (Homo sapiens, UniProt P09917); test: 5-Lipoxygenase Assay (production of 5-HETE from arachidonic acid in polymorphonuclear leukocytes stimulated by A23187); format: cell-based; settings: inhibition of production of 5-HETE, human PMN cells, calcium ionophore A23187, 37° C.
T1 construct: Polymorphonuclear leukocytes were obtained from whole human blood; endogenous in cells; host or cells: human polymorphonuclear leukocytes from whole blood, stimulated with A23187
T1 sequence (P09917 1-674): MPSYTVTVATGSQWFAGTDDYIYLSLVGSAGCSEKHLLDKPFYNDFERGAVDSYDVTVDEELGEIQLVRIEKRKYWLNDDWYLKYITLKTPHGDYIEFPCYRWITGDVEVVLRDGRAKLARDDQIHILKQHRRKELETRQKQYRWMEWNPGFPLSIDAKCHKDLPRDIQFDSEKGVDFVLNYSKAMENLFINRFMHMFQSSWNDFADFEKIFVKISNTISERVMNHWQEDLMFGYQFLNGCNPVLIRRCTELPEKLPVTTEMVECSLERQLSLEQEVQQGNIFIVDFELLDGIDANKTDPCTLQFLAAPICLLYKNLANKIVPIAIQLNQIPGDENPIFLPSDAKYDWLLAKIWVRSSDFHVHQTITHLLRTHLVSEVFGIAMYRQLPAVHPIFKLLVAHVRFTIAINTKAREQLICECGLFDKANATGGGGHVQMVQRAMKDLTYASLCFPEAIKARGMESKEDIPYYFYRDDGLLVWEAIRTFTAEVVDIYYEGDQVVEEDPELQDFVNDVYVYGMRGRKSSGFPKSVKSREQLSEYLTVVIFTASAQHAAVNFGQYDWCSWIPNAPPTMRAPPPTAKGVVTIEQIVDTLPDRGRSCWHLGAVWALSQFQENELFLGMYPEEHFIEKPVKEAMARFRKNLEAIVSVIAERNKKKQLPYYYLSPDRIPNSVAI
Method: The production of 5-HETE from arachidonic acid in human polymorphonuclear leukocytes stimulated by the calcium ionophore A23187 (Calbiochemicals) was measured by reverse phase high pressure liquid chromatography. This procedure is a modification of the procedure of Sun and McGuire, PROSTAGLANDINS, 26, 211-221 (1983). Addition of substances to the test system that inhibit 5-lipoxygenases cause a decrease in the production of 5-HETE and is thus determined in comparison to reference and control articles also added to the reaction system.
Polymorphonuclear leukocytes were obtained from whole human blood by the procedure of Skoog and Beck, BLOOD, 11, 436-454 (1956). […] The tube is incubated for an additional 10 min at 37° C. and the incubations terminated by addition of 1.5 mL of acetone and cooling to 0° C. 13-Hydroxyoctadecatrienoic acid (13-HODT) (5 μL of 0.2 mM methanolic solution) is added for an internal reference standard. The tube is stored at -20° C. under argon for 4-18 hr. Centrifugation at 1000×g for 10 min causes protein precipitate to form a pellet. The acetone layer is evaporated under a stream of nitrogen and the resultant lipid residue containing the arachidonic acid metabolites and 13-HODT is dissolved in 0.5 mL of methanol and stored at -20° C. until analyzed by high-pressure liquid chromatography (HPLC).
For analysis, a 150-μL aliquot of the methanol solution is evaporated under a stream of argon. The residue is reconstituted with 100 μL of a 1:1 methanol-water mixture and sonified for 15-20 seconds and the mixture analyzed by HPLC (C18 reversed phase Econophere column, methanol:water:acetic acid 79:25:0.2 v/v/v used for elution). Test, reference, and control articles are evaluated in duplicate. The inhibition is reported as that concentration which will inhibit by 50% the production of 5-HETE.

cyclooxygenase = biological target: T2, cyclooxygenase (Ovis aries, UniProt P05979); test: Cyclooxygenase Assay (polarigraphic oxygen consumption, lipid-depleted sheep seminal vesicle microsomes); format: biochemical; settings: 30° C., 2 min incubation, ammonium arachidonate substrate
T2 construct: Lipid-depleted Sheep Seminal Vesicle Microsome Suspension; from tissue; host or cells: sheep seminal vesicle microsomes (lipid-depleted powder, detergent solubilized)
T2 sequence (P05979 25-600): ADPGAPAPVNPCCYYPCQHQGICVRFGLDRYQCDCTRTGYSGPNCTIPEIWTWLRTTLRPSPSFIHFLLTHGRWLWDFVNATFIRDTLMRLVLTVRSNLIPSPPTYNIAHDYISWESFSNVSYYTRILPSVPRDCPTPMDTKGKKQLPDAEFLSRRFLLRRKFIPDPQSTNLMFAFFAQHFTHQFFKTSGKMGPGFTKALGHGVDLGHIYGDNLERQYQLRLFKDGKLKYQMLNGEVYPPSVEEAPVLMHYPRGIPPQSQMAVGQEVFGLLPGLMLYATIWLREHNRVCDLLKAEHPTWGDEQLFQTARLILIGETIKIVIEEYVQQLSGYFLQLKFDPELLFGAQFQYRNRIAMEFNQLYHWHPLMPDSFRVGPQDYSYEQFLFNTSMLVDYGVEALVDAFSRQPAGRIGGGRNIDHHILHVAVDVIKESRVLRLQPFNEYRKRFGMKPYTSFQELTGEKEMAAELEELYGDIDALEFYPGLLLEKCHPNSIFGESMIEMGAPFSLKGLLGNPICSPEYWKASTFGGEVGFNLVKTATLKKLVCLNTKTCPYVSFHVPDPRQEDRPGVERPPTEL
Method: Cyclooxygenase activity was determined polarigraphically with detergent solubilized, lipid-depleted sheep seminal vesical microsomes. Addition of test articles that inhibit cyclooxygenase, including reference standards, cause a decrease in the rate of oxygen consumption in the reactions. Cyclooxygenase activity is determined using the following procedures:
I. Preparation of Test Materials
1. Lipid-Depleted Sheep Seminal Vesicle Microsomal Powder. This preparation follows the procedure of G. Graff et al. J. Biol. Chem. 253, 7662 (1978).
2. Ammonium Arachidonate Solution. A 250 μL aliquot of 20.0 mM arachidonic acid in absolute ethanol and a 50-μL aliquot of concentrated ammonium hydroxide is placed into a test tube. The solvent and excess ammonium hydroxide is evaporated under a stream of nitrogen at room temperature. The ammonium arachidonate residue is dissolved in 500 μL of 100 mM 2-amino-2-hydroxymethyl-1,3-propanediol hydrochloride (Tris HCl) buffer (pH 8.0) by using a vortex mixer. The final concentration of ammonium arachidonate (working solution) is 10.0 mM.
3. Enzyme Buffer 100 mM Tris HCl (pH 8.0) containing 2.0 mM phenol, 5.0 mM ethylenediaminetetraacetic acid (EDTA), 5.0 mM diethyldithiocarbamic acid and 1.0% Tween 20.
4. Reaction Buffer 100 mM Tris HCl (pH 8.0) containing 2.0 μM hematin and 1.0 mM phenol (prepared daily).
5. Detergent Solubilized Lipid-depleted Sheep Seminal Vesicle Microsome Suspension. Ten mg (solid) of lipid-depleted microsomal powder from sheep seminal vesicles is suspended in 1.0 mL of enzyme buffer and kept at 4° C. until used.
6. Solutions of Test (Formula I compound) or Reference Articles. Test and reference articles are dissolved in the reaction buffer prepared in 4) or a solvent that will not interfere with cyclooxygenase activity, e.g., dimethylsulfoxide, ethanol or acetone.
II. Cyclooxygenase Inhibition Assay
Three mL of the reaction buffer and 20 μL of the microsomal enzyme suspension are placed in a Yellow Springs Instrument (YSI) oxygen chamber where the temperature is maintained at 30° C. by means of a temperature controlled circulating water bath. Aliquots of the solutions containing ≤[…] of Formula I compound (test article) or reference article [see 6) above] are added to the YSI chamber and incubated for 2 minutes. The reaction is initiated by addition of 30 μL of the 10 mM ammonium arachidonate solution and cyclooxygenase activity determined polarigraphically using an oxygen electrode by measuring the rate of oxygen consumption [Cook et al., Anal. Biochem 96 341-51 (1979) and Cook and Lands, Can. J. Biochem. 53, 1220-1231 (1975)].
Test, reference, and control articles were evaluated in triplicate. Cyclooxygenase activity was determined from the slope (mv/unit time) of the recorder tracing with 1 mV being proportional to a 2.34 μM change in oxygen concentration.
The IC50 (concentration of test or reference article that inhibits the reaction by 50%) was calculated from cumulative plots relating the extent of inhibition of cyclooxygenase activity in control group assays to increasing concentrations of test article. Where no inhibition exists, the IC50 is expressed as greater than the highest concentration of the drug tested.

guinea pig skin = test: UV-Erythema in Guinea Pigs; format: in vivo; parameters: key: +: active; -: inactive; settings: topical, 50 μL of cream with 1.0 mg test article per 1 g, immediately after UV exposure; active = composite score significantly lower than control, Dunnett's t-test p≤0.05
Method: I. Preparation of Formulation (cream)
All drugs tested were prepared by thoroughly incorporating 1.0 mg of the test article into 1 g of a pH 7.0 cream vehicle of the following composition.
methyl glucose sesquistearate 1.6%
methyl gluceth-20 sesquistearate 2.4%
emulsifying wax, N.F. 5.0%
mineral oil (heavy), U.S.P. 1.0%
white petrolatum, U.S.P. 5.0%
stearic acid, U.S.P. 2.5%
sodium benzoate, N.F. 0.1%
magnesium aluminum silicate 1.5%
deionized water, pH 7.0 64.8%
The preparations were packed into 1-cc plastic syringes.
II. Pharmacological Assay
The backs of female, English short hair guinea pigs (250-500 g) were shaved and depilated with Nair®. Control and treated groups each consisted of 5 animals, and selection of the animals and the control and treatment groups was achieved by random procedures. A rubber sheet with three one-half inch holes spaced one-half inch apart was draped over backs of the guinea pigs. The guinea pigs were then exposed to ultraviolet (UV) light (Hanovia Model 10, ~650-800 μW/cm^2) for 15 seconds by holding the animals against the light source. Fifty μL of the test drug or reference drug (indomethacin or bromfenac) preparation were immediately rubbed onto the skin, either on the area exposed to UV light or to an area adjacent to the UV light exposed skin. The degree of erythema for each exposed area was scored at various times following exposure according to the following scale:
1=slight redness with faint outline
2=moderate to marked redness with distinct outline
The score was totaled for each guinea pig (maximum score is 6). The Dunnett's t-test was used to determine significant (p≤0.05) differences from the control (placebo treated) group.

Compound	IC50 (5-lipoxygenase) [nM]	IC50 (cyclooxygenase) [nM]	U.V. erythema (+ = active, - = inactive) (guinea pig skin)
CCCC[C@@H]1S[C@H](c2cccc(Oc3ccccc3)c2)N(c2ccc(O)cc2)C1=O (relative stereo) [Example 3, 5-Butyl-3-(4-hydroxyphenyl)-2-(3-phenoxyphenyl)-4-thiazolidinone]	5000	8000	–
CCCC[C@@H]1S[C@@H](c2cccc(Oc3ccccc3)c2)N(CCCCc2ccc(C(=O)OCC)cc2)C1=O (relative stereo) [Example 5, 4-[4-[5-Butyl-4-oxo-2-(3-phenoxyphenyl)-3-thiazolidinyl]butyl]benzoic acid ethyl ester]	–	70	–
CCCC[C@@H]1S[C@H](c2cccc(Oc3ccccc3)c2)N(CCCCc2ccc(C(=O)OCC)cc2)C1=O (relative stereo) [Example 6, 4-[4-[5-Butyl-4-oxo-2-(3-phenoxyphenyl)-3-thiazolidinyl]butyl]benzoic acid ethyl ester]	–	50	–
CCCC[C@@H]1S[C@@H](c2cccc(C(=O)c3ccccc3)c2)N(c2ccc(O)cc2)C1=O (relative stereo) [Example 22, 2-(3-Benzoylphenyl)-5-butyl-3-(4-hydroxyphenyl)-4-thiazolidinone]	6400	2200	–
CCCCC1SC(c2cccc(Oc3ccccc3)c2)N(CCc2ccccn2)C1=O (stereo not shown) [Example 18, 5-Butyl-2-(3-phenoxyphenyl)-3-[2-(2-pyridinyl)ethyl]-4-thiazolidinone]	7800	120	–
CCCCC1SC(c2cccc(Oc3ccccc3)c2)N(CCCOc2ccc(C(=O)O)cc2)C1=O (stereo not shown) [Example 30, 4-[3-[5-Butyl-4-oxo-2-(3-phenoxyphenyl)-3-thiazolidinyl]propoxy]benzoic acid]	3500	1600	–
CCCCC1SC(c2cccc(Oc3ccccc3)c2)N(CCCCCCC(=O)OCC)C1=O (stereo not shown) [Example 55, 5-Butyl-4-oxo-2-(3-phenoxyphenyl)-3-thiazolidineheptanoic acid ethyl ester]	~10000	1000	–
CCCCC1SC(c2cccc(Oc3ccccc3)c2)N(CCc2ccc(O)cc2)C1=O (stereo not shown) [Example 59, 5-Butyl-3-[2-(4-hydroxyphenyl)ethyl]-2-(3-phenoxyphenyl)-4-thiazolidinone]	–	–	+
